Key:
[1] = system: SARS-CoV-2 omicron variant B.1.1.529; test: microbe, parasite or virus in culture; assay type: cell-based; conditions: Severe acute respiratory syndrome coronavirus 2, Vero C1008, 48 h
[2] = mouse, in vivo

Row | Compound | IC50 [1] | weight loss at 3 DPI compared to water control [2]
1 | CC(N)C12CC3CC(CC(C3)C1)C2 (stereo not shown) [rimantadine] | 17.8 µM | –
2 | NC12CC3CC(CC(C3)C1)C2 [amantadine] | 106 µM | significant amount of weight loss
3 | CCC(CC)COC(=O)[C@H](C)N[P@](=O)(OC[C@H]1O[C@@](C#N)(c2ccc3c(N)ncnn23)[C@H](O)[C@@H]1O)Oc1ccccc1 [remdesivir] | 0.89 µM | –

Reference: publication PMC10238102, “Anti-SARS-CoV-2 Activity of Adamantanes In Vitro and in Animal Models of Infection” (COVID, 2022)
